These results are taken from ChEMBL document CHEMBL1133355, “Pyrrolo[3,2,1-ij]quinoline derivatives, a 5-HT2c receptor agonist with selectivity over the 5-HT2a receptor: potential therapeutic applications for epilepsy and obesity” (Bioorg Med Chem Lett, 2000).

Assay [1] has as its target T1, 5-hydroxytryptamine receptor 2C (Homo sapiens, UniProt P28335).
T1 sequence (P28335 whole entry): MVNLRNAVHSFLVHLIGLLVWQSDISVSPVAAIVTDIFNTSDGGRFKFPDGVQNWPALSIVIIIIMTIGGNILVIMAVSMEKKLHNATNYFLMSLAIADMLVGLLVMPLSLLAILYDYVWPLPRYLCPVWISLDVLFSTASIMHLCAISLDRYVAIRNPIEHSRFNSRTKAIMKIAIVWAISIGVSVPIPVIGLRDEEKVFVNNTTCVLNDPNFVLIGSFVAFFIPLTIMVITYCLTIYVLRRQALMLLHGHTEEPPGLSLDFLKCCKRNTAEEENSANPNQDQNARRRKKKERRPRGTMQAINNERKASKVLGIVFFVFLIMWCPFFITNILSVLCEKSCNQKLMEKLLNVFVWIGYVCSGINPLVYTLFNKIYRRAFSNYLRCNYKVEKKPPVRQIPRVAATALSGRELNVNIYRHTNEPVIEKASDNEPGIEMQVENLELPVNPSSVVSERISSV
The assay can be described thus: Functional agonist activity of compound was determined by fluorescence-based assay measuring intracellular calcium mobilization for 5-HT2c receptor cell line. Background: Calcium flux is commonly read through the fluorescence of an indicator in the cells.

For assay [2], the target named is T2, 5-hydroxytryptamine receptor 2A (Homo sapiens, UniProt P28223). The assay can be described thus: In vitro binding affinity towards human 5-hydroxytryptamine 2A receptor expressed in HEK293 cells was determined using [3H]ketanserin as radioligand. In kind it is cell-based.
Assay [3] concerns the target T2, 5-hydroxytryptamine receptor 2A. The assay can be described thus: Functional agonist activity of compound was determined by fluorescence-based assay measuring intracellular calcium mobilization for 5-HT2a receptor cell line.
Assay [4] is described as follows: Binding ratio of compound to 5-HT2a to that of 5-HT2c was determined.
Assay [5] concerns the target T1, 5-hydroxytryptamine receptor 2C. The assay can be described thus: In vitro binding affinity towards human 5-hydroxytryptamine 2C receptor expressed in HEK293 cells was determined using [3H]mesulergine as radioligand. It counts as cell-based.
Assay [6] has as its target T2, 5-hydroxytryptamine receptor 2A. Kind of assay: Functional antagonist activity of compound was determined by fluorescence-based assay measuring intracellular calcium mobilization for 5-HT2a receptor cell line.

T2 sequence (P28223 whole entry): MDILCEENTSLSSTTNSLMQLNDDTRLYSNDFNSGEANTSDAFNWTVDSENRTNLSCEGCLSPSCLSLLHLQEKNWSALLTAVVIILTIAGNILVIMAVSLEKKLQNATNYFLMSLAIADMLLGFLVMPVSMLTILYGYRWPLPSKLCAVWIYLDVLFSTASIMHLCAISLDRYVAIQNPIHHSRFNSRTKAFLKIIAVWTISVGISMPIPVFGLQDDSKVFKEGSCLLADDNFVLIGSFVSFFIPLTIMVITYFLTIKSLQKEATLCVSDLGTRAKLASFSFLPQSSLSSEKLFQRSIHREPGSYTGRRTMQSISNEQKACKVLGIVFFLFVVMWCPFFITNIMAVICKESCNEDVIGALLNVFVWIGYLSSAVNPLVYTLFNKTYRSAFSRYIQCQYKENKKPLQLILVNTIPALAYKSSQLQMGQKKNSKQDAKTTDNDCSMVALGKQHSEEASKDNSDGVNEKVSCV

One may read the EC50 as the concentration that produces a half-maximal response. In general, Ki refers to a dissociation constant, usually derived from enzyme kinetics or from competition with a known ligand. Turning to `CNCCc1cn2c3c(cc(F)cc13)CCC2C` (centres undefined), the half-maximal effective concentration (EC50) in assay [1] was 180 nM; in assay [3], over 10000 nM; in assay [6], 1100 nM. The inhibition constant (Ki) in assay [2] stood at 1460 nM; in assay [5] it was 33 nM. For the same molecule, the Ratio in assay [4] came to 44.
Turning to `Cc1c(CCN)c2cccc3c2n1CCC3`, the concentration for a half-maximal effect (EC50) in assay [1] was found to be 9 nM. The Ki in assay [2] is 676 nM; in assay [5], 225 nM. Also, the Ratio in assay [4] stood at 3.
Turning to `NCCc1cn2c3c(cc(Cl)cc13)SCC2`, the EC50 came to 0.23 nM in assay [1] and 348 nM in assay [3]. Besides, the Ki is 631 nM in assay [2] and 47 nM in assay [5]. In addition, in assay [4], the Ratio amounted to 13.4.
Turning to `NCCc1cn2c3c(cccc13)CCC2`, the EC50 was found to be 0.2 nM in assay [1] and 145 nM in assay [3]. In addition, the inhibition constant Ki turned out to be 794 nM in assay [2] and 41 nM in assay [5]. The Ratio in assay [4] came to 19.4.
`Cc1c(CCN)c2cc(F)cc3c2n1C(C)CC3` (centres undefined): the EC50 in assay [1] was found to be 41 nM. Also, the figures for the Ki in assay [2] and in assay [5] were 954 nM and 194 nM, respectively. The Ratio in assay [4] is 4.9.
For the molecule `CC1CCc2cc(F)cc3c(CCN)cn1c23` (centres undefined), the concentration giving a half-maximal response (EC50) in assay [1] was determined as 5.7 nM; in assay [3], 269 nM. The values for the Ki in assay [2] and in assay [5] were 2340 nM and 18 nM, respectively. Besides, in assay [4], the Ratio was found to be 130.
